Measured values published in patent US10851105B2, “Bicyclic heterocycles as FGFR4 inhibitors” (Incyte Corporation, priority 2014, dated 2020).
Like-named read-outs stand apart in the source and are kept apart here.

Experiments:
FGFR4 = FGFR4 (Homo sapiens (Human), UniProt P22455); assay: FGFR Enzymatic Assay (FRET peptide phosphorylation), FGFR4
Method: (§1) The inhibitor potency of the exemplified compounds was measured in an enzyme assay that measures peptide phosphorylation using FRET measurements to detect product formation. Inhibitors were serially diluted in DMSO and a volume of 0.5 μL was transferred to the wells of a 384-well plate. For FGFR3, a 10 μL volume of FGFR3 enzyme (Millipore) diluted in assay buffer (50 mM HEPES, 10 mM MgCl2, 1 mM EGTA, 0.01% Tween-20, 5 mM DTT, pH 7.5) was added to the plate and pre-incubated for a time between 5-10 minutes and up to 4 hours. Appropriate controls (enzyme blank and enzyme with no inhibitor) were included on the plate. […] The plate was incubated at 25° C. for 1 hr. […] The plate was allowed to equilibrate for ˜1 hr before scanning the wells on a PheraStar plate reader (BMG Labtech).
(§2) The enzymes were purchased from Millipore or Invitrogen.
(§3) GraphPad prism3 was used to analyze the data. The IC50 values were derived by fitting the data to the equation for a sigmoidal dose-response with a variable slope. Y=Bottom+(Top-Bottom)/(1+10^((Log IC50−X)*HillSlope)) where X is the logarithm of concentration and Y is the response.

FGFR3 = FGFR3 (Homo sapiens (Human), UniProt P22607); assay: FGFR Enzymatic Assay (FRET peptide phosphorylation), FGFR3; conditions: for FGFR3/FGFR4: IC50 ratio
Method: Inhibitors were serially diluted in DMSO and a volume of 0.5 μL was transferred to the wells of a 384-well plate. For FGFR3, a 10 μL volume of FGFR3 enzyme (Millipore) diluted in assay buffer (50 mM HEPES, 10 mM MgCl2, 1 mM EGTA, 0.01% Tween-20, 5 mM DTT, pH 7.5) was added to the plate and pre-incubated for a time between 5-10 minutes and up to 4 hours. Appropriate controls (enzyme blank and enzyme with no inhibitor) were included on the plate. […] The plate was incubated at 25° C. for 1 hr. […] The plate was allowed to equilibrate for ˜1 hr before scanning the wells on a PheraStar plate reader (BMG Labtech).
as §3

FGFR2 = FGFR2 (Homo sapiens (Human), UniProt P21802); assay: FGFR Enzymatic Assay (FRET peptide phosphorylation), FGFR2; conditions: for FGFR2/FGFR4: IC50 ratio
Method: as §1, §2, §3

FGFR1 = FGFR1 (Homo sapiens (Human), UniProt P11362); assay: FGFR Enzymatic Assay (FRET peptide phosphorylation), FGFR1; conditions: for FGFR1/FGFR4: IC50 ratio
Method: as §1, §2, §3

[1] = FGFR4 IC50 (nM), pre-incubated for 5 to 10 minutes
[2] = FGFR4 IC50 (nM), pre-incubated for 4 hours
[3] = pre-incubated for 5 to 10 minutes
[4] = read-out: FGFR3 IC50, pre-incubated for 5 to 10 minutes
[5] = read-out: FGFR2 IC50, pre-incubated for 5 to 10 minutes
[6] = FGFR1 IC50 (nM), pre-incubated for 5 to 10 minutes
[7] = FGFR1 IC50 (nM), pre-incubated for 4 hours
[8] = read-out: FGFR4 IC50, pre-incubated for 5 to 10 minutes
[9] = read-out: FGFR4 IC50, pre-incubated for 4 hours
[10] = read-out: FGFR3 IC50, pre-incubated for 4 hours
[11] = read-out: FGFR2 IC50, pre-incubated for 4 hours
[12] = read-out: FGFR1 IC50, pre-incubated for 5 to 10 minutes
[13] = read-out: FGFR1 IC50, pre-incubated for 4 hours

FGFR4, sequence (P22455 22-802): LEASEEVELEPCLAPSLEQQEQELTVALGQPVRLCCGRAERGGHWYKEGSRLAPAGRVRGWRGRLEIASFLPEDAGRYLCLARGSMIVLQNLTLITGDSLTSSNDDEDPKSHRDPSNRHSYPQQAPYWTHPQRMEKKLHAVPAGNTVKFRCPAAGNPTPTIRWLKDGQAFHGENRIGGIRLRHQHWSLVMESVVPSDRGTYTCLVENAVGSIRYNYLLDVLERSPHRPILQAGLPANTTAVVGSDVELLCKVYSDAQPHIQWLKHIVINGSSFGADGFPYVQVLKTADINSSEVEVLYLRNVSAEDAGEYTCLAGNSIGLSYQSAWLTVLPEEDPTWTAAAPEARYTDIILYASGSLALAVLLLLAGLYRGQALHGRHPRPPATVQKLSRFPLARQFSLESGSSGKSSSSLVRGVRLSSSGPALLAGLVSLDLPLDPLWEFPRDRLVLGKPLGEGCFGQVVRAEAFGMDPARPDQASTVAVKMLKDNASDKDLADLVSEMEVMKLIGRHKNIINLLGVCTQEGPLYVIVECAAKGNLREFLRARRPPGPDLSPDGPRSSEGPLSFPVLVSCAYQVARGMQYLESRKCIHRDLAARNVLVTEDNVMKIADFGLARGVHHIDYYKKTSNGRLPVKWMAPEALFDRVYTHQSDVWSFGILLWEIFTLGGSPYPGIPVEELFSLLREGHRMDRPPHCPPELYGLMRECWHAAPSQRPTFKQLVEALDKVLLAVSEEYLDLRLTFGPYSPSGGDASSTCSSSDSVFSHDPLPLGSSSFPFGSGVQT
FGFR1, sequence (P11362 22-822): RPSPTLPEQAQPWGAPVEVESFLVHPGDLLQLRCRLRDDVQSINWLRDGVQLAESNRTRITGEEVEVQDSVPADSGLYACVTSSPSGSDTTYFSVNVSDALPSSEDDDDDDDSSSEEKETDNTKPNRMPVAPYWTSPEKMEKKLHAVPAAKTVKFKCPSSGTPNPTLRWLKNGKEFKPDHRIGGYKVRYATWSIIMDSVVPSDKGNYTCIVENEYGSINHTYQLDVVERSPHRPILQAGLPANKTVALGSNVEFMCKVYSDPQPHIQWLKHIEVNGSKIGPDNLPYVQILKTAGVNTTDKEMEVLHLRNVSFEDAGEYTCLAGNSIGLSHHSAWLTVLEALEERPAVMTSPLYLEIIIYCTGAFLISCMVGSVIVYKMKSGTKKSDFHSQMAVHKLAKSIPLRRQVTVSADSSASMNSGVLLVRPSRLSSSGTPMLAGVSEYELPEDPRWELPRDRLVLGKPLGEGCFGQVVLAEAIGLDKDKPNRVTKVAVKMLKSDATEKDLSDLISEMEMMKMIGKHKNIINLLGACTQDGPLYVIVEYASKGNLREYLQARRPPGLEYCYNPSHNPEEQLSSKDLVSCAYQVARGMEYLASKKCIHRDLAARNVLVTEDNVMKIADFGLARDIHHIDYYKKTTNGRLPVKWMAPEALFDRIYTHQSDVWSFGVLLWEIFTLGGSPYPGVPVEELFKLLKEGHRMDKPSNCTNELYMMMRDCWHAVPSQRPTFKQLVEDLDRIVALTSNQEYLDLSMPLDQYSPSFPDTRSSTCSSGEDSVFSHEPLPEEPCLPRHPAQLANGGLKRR
FGFR3, sequence (P22607 23-806): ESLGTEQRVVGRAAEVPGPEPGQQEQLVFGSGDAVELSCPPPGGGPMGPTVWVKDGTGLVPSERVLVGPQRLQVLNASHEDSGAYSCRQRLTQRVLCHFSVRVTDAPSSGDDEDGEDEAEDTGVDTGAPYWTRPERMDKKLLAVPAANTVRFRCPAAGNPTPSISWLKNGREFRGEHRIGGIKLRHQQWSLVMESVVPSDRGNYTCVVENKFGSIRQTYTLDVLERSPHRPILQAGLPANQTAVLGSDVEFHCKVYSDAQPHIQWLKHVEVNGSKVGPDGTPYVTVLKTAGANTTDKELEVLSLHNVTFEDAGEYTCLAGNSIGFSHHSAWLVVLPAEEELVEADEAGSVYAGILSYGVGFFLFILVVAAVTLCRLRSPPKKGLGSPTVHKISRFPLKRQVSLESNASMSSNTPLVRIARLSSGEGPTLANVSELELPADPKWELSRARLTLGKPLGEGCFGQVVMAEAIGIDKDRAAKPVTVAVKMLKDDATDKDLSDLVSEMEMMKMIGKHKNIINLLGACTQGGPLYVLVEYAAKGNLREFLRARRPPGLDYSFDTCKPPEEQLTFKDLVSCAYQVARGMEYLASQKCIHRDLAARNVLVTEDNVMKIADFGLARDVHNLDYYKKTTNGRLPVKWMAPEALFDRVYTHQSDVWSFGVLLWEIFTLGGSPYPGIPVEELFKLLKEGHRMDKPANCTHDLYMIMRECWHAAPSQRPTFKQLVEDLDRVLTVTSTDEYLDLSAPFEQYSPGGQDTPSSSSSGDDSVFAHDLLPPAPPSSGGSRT
FGFR2, sequence (P21802 22-821): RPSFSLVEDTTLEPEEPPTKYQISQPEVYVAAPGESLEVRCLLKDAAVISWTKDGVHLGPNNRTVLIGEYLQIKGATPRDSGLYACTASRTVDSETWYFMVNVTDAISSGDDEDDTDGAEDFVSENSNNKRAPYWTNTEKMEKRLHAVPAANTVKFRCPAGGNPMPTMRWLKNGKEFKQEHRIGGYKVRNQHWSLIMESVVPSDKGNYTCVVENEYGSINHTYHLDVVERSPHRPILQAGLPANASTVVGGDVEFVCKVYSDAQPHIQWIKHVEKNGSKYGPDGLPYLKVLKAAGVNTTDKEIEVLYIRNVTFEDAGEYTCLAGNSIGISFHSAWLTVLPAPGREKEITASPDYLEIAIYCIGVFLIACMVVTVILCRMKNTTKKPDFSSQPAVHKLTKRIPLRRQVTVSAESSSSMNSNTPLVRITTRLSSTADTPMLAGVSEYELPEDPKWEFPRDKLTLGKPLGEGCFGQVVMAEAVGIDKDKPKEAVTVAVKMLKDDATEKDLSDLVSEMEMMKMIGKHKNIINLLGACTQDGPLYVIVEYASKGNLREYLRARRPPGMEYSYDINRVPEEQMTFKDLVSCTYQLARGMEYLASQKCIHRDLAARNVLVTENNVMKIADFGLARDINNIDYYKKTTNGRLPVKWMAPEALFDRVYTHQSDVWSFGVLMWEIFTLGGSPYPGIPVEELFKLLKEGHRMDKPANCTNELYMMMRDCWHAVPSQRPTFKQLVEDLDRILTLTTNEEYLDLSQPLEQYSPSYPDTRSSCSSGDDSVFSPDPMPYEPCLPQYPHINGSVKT

| Structure (SMILES) | IC50 (FGFR4; [1]) [nM] | IC50 (FGFR4; [2]) [nM] | IC50 (FGFR3) [µM] | FGFR3/FGFR4 (FGFR3; [3]) | FGFR3/FGFR4 (FGFR3; pre-incubated for 4 hours) | IC50 (FGFR3; [4]) [µM] | IC50 (FGFR2) [µM] | FGFR2/FGFR4 (FGFR2; [3]) | FGFR2/FGFR4 (FGFR2; pre-incubated for 4 hours) | IC50 (FGFR2; [5]) [µM] | IC50 (FGFR1; [6]) [nM] | IC50 (FGFR1; [7]) [nM] | FGFR1/FGFR4 (FGFR1; [3]) | FGFR1/FGFR4 (FGFR1; pre-incubated for 4 hours) | IC50 (FGFR4; [8]) [nM] | IC50 (FGFR4; [9]) [nM] | IC50 (FGFR3; [10]) [µM] | IC50 (FGFR2; [11]) [µM] | IC50 (FGFR1; [12]) [nM] | IC50 (FGFR1; [13]) [nM] |
| --- | --- | --- | --- | --- | --- | --- | --- | --- | --- | --- | --- | --- | --- | --- | --- | --- | --- | --- | --- | --- |
| C=CC(=O)NC1CCCCC1Nc1cc2c(cn1)CN(c1c(F)c(OC)cc(OC)c1F)C(=O)C21CC1 (racemic) [Example 3, N-(2-(2′-(2,6-difluoro-3,5-dimethoxyphenyl)-3′-oxo-2′,3′-dihydro-1′H-spiro [cyclopropane-1,4′-[2,7]naphthyridine]-6′-ylamino)cyclohexyl)acrylamide] | 30 to 200 | < 10 | > 0.2 | >10 | >100 | > 0.2 | > 0.2 | >5 | >25 | > 0.2 | > 200 | > 200 | >5 | >25 | – | – | – | – | – | – |
| C=CC(=O)NC1COCC1Nc1cc2c(cn1)CN(c1c(F)c(OC)cc(OC)c1F)C(=O)C21CC1 (racemic) [Example 4, N-(4-(2′-(2,6-difluoro-3,5-dimethoxyphenyl)-3′-oxo-2′,3′-dihydro-1′H-spiro[cyclopropane-1,4′-[2,7]naphthyridine]-6′-ylamino)tetrahydrofuran-3-yl)acrylamide] | < 10 | < 10 | > 0.2 | >10 | >100 | > 0.2 | > 0.2 | >10 | >100 | > 0.2 | > 200 | 30 to 200 | >10 | >100 | – | – | – | – | – | – |
| C=CC(=O)Nc1ccccc1Nc1cc2c(cn1)CN(c1c(F)c(OC)cc(OC)c1F)C(=O)C21CC1 [Example 1, N-(2-(2′-(2,6-difluoro-3,5-dimethoxyphenyl)-3′-oxo-2′,3′-dihydro-1H-spiro[cyclopropane-1,4′-[2,7]naphthyridine]-6′-ylamino)phenyl)acrylamide] | – | – | 0.03 to 0.2 | >10 | >100 | 0.03 to 0.2 | 0.03 to 0.2 | >10 | >100 | 0.03 to 0.2 | 30 to 200 | 30 to 200 | >10 | >100 | < 10 | < 10 | – | – | – | – |
| C=CC(=O)N(C)c1cc2c(cn1)CN(c1c(F)c(OC)cc(OC)c1F)C(=O)C21CC1 [Example 2, N-(2′-(2,6-difluoro-3,5-dimethoxyphenyl)-3′-oxo-2′,3′-dihydro-1′H-spiro [cyclopropane-1,4′-[2,7]naphthyridine]-6′-yl)-N-methylacrylamide] | 10 to 30 | – | 0.03 to 0.2 | >5 | >10 | > 0.2 | 0.03 to 0.2 | >2 | >5 | 0.03 to 0.2 | 30 to 200 | 30 to 200 | >5 | >10 | – | < 10 | – | – | – | – |
| C=CC(=O)Nc1cccc(C)c1Nc1cc2c(cn1)CN(c1c(F)c(OC)cc(OC)c1F)C(=O)C21CC1 [Example 5, N-(2-(2′-(2,6-difluoro-3,5-dimethoxyphenyl)-3′-oxo-2′,3′-dihydro-1′H-spiro [cyclopropane-1,4′-[2,7]naphthyridine]-6′-ylamino)-3-methylphenyl)acrylamide] | – | – | – | >10 | >100 | > 0.2 | – | >10 | >100 | > 0.2 | – | – | >10 | >100 | < 10 | < 10 | > 0.2 | > 0.2 | > 200 | > 200 |
| C=CC(=O)Nc1ccccc1Nc1cc2c(cn1)CN(c1c(F)c(OC)cc(OC)c1F)C(=O)C2(C)C [Example 6, N-(2-(7-(2,6-difluoro-3,5-dimethoxyphenyl)-5,5-dimethyl-6-oxo-5,6,7,8-tetrahydro-2,7-naphthyridin-3-ylamino)phenyl)acrylamide] | 10 to 30 | – | – | >10 | >100 | > 0.2 | – | >10 | >100 | > 0.2 | – | – | >10 | >100 | – | < 10 | > 0.2 | > 0.2 | > 200 | > 200 |
| C=CC(=O)Nc1ccccc1Nc1cc2c(cn1)CN(c1c(F)c(OC)cc(OC)c1F)C(=O)C21CCCC1 [Example 7, N-(2-(2′-(2,6-difluoro-3,5-dimethoxyphenyl)-3′-oxo-2′,3′-dihydro-1′H-spiro [cyclopentane-1,4′-[2,7]naphthyridine]-6′-ylamino)phenyl)acrylamide] | – | – | – | >10 | >100 | > 0.2 | 0.03 to 0.2 | >10 | >100 | > 0.2 | 30 to 200 | 30 to 200 | >10 | >100 | < 10 | < 10 | > 0.2 | – | – | – |
| C=CC(=O)Nc1ccccc1Nc1cc2c(cn1)CN(c1c(F)c(OC)cc(OC)c1F)C(=O)C21CCOCC1 [Example 8, N-(2-(2-(2,6-difluoro-3,5-dimethoxyphenyl)-3-oxo-2,2′,3,3′,5′,6′-hexahydro-1H-spiro[[2,7]naphthyridine-4,4′-pyran]-6-ylamino)phenyl)acrylamide] | – | – | – | >10 | >100 | > 0.2 | – | >10 | >100 | > 0.2 | – | – | >10 | >100 | > 200 | < 10 | > 0.2 | > 0.2 | > 200 | > 200 |
| C=CC(=O)Nc1ccccc1Nc1cc2c(cn1)CN(c1c(F)c(OC)cc(OC)c1F)C(=O)C21CCOC1 (centres unmarked) [Example 9, N-(2-(2′-(2,6-difluoro-3,5-dimethoxyphenyl)-3′-oxo-2′,3′,4,5-tetrahydro-1′H,2H-spiro[furan-3,4′-[2,7]naphthyridine]-6′-ylamino)phenyl)acrylamide] | 10 to 30 | – | – | >10 | >100 | > 0.2 | – | >10 | >100 | > 0.2 | – | – | >10 | >100 | – | < 10 | > 0.2 | > 0.2 | > 200 | > 200 |
| C=CC(=O)Nc1ccc(N2CCOCC2)cc1Nc1cc2c(cn1)CN(c1c(F)c(OC)cc(OC)c1F)C(=O)C21CC1 [Example 10, N-(2-{[2′-(2,6-difluoro-3,5-dimethoxyphenyl)-3′-oxo-2′,3′-dihydro-1′H-spiro [cyclopropane-1,4′-[2,7]naphthyridin]-6′-yl]amino}-4-morpholin-4-ylphenyl)acrylamide] | – | – | 0.03 to 0.2 | >10 | >100 | 0.03 to 0.2 | – | >10 | >100 | > 0.2 | – | 30 to 200 | >10 | >100 | < 10 | < 10 | – | > 0.2 | > 200 | – |
